From BigSolDB 2.1

| Structure (SMILES) | solubility (mole fraction) (in acetic acid, 288.15 K) | solubility (mole fraction) (in acetic acid, 293.15 K) | solubility (mole fraction) (in acetic acid, 298.15 K) | solubility (mole fraction) (in acetic acid, 303.15 K) | solubility (mole fraction) (in acetic acid, 308.15 K) | solubility (mole fraction) (in acetic acid, 315.15 K) | solubility (mole fraction) (in acetic acid, 318.15 K) | solubility (mole fraction) (in acetic acid, 323.15 K) | solubility (mole fraction) (in acetone, 288.15 K) | solubility (mole fraction) (in acetone, 293.15 K) | solubility (mole fraction) (in acetone, 298.15 K) | solubility (mole fraction) (in acetone, 303.15 K) | solubility (mole fraction) (in acetone, 308.15 K) | solubility (mole fraction) (in acetone, 315.15 K) | solubility (mole fraction) (in acetone, 318.15 K) | solubility (mole fraction) (in acetone, 323.15 K) | solubility (mole fraction) (in ethanol, 288.15 K) | solubility (mole fraction) (in ethanol, 293.15 K) | solubility (mole fraction) (in ethanol, 298.15 K) | solubility (mole fraction) (in ethanol, 303.15 K) | also measured |
| --- | --- | --- | --- | --- | --- | --- | --- | --- | --- | --- | --- | --- | --- | --- | --- | --- | --- | --- | --- | --- | --- |
| O=C(O)CCCC(=O)O | 0.173 | 0.196 | 0.221 | 0.241 | 0.276 | 0.31 | 0.341 | 0.385 | 0.183 | 0.207 | 0.237 | 0.264 | 0.329 | 0.324 | 0.375 | 0.417 | 0.136 | 0.158 | 0.176 | 0.201 | solubility (mole fraction) (in ethanol, 308.15 K): 0.228; solubility (mole fraction) (in ethanol, 315.15 K): 0.274; solubility (mole fraction) (in ethanol, 318.15 K): 0.322; solubility (mole fraction) (in ethanol, 323.15 K): 0.35; solubility (mole fraction) (in ethyl acetate, 288.15 K): 0.0861; solubility (mole fraction) (in ethyl acetate, 293.15 K): 0.105; solubility (mole fraction) (in ethyl acetate, 298.15 K): 0.123; solubility (mole fraction) (in ethyl acetate, 303.15 K): 0.133; solubility (mole fraction) (in ethyl acetate, 308.15 K): 0.146; solubility (mole fraction) (in ethyl acetate, 315.15 K): 0.176; solubility (mole fraction) (in ethyl acetate, 318.15 K): 0.227; solubility (mole fraction) (in ethyl acetate, 323.15 K): 0.307 |
| O=C(O)CCCCCCC(=O)O | 0.0115 | 0.0145 | 0.0176 | 0.0216 | 0.0264 | 0.0329 | 0.0405 | 0.0501 | 0.0092 | 0.0127 | 0.0167 | 0.021 | 0.025 | 0.0301 | 0.0356 | 0.0405 | 0.0208 | 0.0253 | 0.031 | 0.0375 | solubility (mole fraction) (in ethanol, 308.15 K): 0.0454; solubility (mole fraction) (in ethanol, 315.15 K): 0.0553; solubility (mole fraction) (in ethanol, 318.15 K): 0.0683; solubility (mole fraction) (in ethanol, 323.15 K): 0.0847; solubility (mole fraction) (in ethyl acetate, 288.15 K): 0.00238; solubility (mole fraction) (in ethyl acetate, 293.15 K): 0.00302; solubility (mole fraction) (in ethyl acetate, 298.15 K): 0.00389; solubility (mole fraction) (in ethyl acetate, 303.15 K): 0.00513; solubility (mole fraction) (in ethyl acetate, 308.15 K): 0.00641; solubility (mole fraction) (in ethyl acetate, 315.15 K): 0.00819; solubility (mole fraction) (in ethyl acetate, 318.15 K): 0.00978; solubility (mole fraction) (in ethyl acetate, 323.15 K): 0.0118 |
| O=C(O)CCCCCCCC(=O)O | 0.0333 | 0.04 | 0.0524 | 0.0631 | 0.0761 | 0.0923 | 0.111 | 0.133 | 0.029 | 0.0331 | 0.04 | 0.0494 | 0.0634 | 0.0806 | 0.103 | 0.143 | 0.0534 | 0.0601 | 0.0707 | 0.0851 | solubility (mole fraction) (in ethanol, 308.15 K): 0.102; solubility (mole fraction) (in ethanol, 315.15 K): 0.124; solubility (mole fraction) (in ethanol, 318.15 K): 0.15; solubility (mole fraction) (in ethanol, 323.15 K): 0.185; solubility (mole fraction) (in ethyl acetate, 288.15 K): 0.00911; solubility (mole fraction) (in ethyl acetate, 293.15 K): 0.0113; solubility (mole fraction) (in ethyl acetate, 298.15 K): 0.0162; solubility (mole fraction) (in ethyl acetate, 303.15 K): 0.0232; solubility (mole fraction) (in ethyl acetate, 308.15 K): 0.0326; solubility (mole fraction) (in ethyl acetate, 315.15 K): 0.0524; solubility (mole fraction) (in ethyl acetate, 318.15 K): 0.0663; solubility (mole fraction) (in ethyl acetate, 323.15 K): 0.0964 |
| O=C(O)CCCCCC(=O)O | 0.0648 | 0.0794 | 0.0964 | 0.119 | 0.14 | 0.169 | 0.199 | 0.232 | 0.0546 | 0.0752 | 0.118 | 0.146 | 0.174 | 0.202 | 0.224 | 0.246 | 0.0677 | 0.0851 | 0.104 | 0.126 | solubility (mole fraction) (in ethanol, 308.15 K): 0.15; solubility (mole fraction) (in ethanol, 315.15 K): 0.178; solubility (mole fraction) (in ethanol, 318.15 K): 0.204; solubility (mole fraction) (in ethanol, 323.15 K): 0.237; solubility (mole fraction) (in ethyl acetate, 288.15 K): 0.0233; solubility (mole fraction) (in ethyl acetate, 293.15 K): 0.0321; solubility (mole fraction) (in ethyl acetate, 298.15 K): 0.0517; solubility (mole fraction) (in ethyl acetate, 303.15 K): 0.0718; solubility (mole fraction) (in ethyl acetate, 308.15 K): 0.0802; solubility (mole fraction) (in ethyl acetate, 315.15 K): 0.0904; solubility (mole fraction) (in ethyl acetate, 318.15 K): 0.102; solubility (mole fraction) (in ethyl acetate, 323.15 K): 0.128 |
